According to article PMC10818749, “Toxicity Studies of Cardiac-Targeting Peptide Reveal a Robust Safety Profile” (Pharmaceutics, 2024):
“Also recorded” adds a separate entry of the source. Ends that are not written are not given here.

Assays:
cardiomyocytes = conditions: cited from earlier work
From the text: Targeted delivery of therapeutics specifically to cardiomyocytes would open up new frontiers for common conditions like heart failure. […] CTP has been used to deliver imaging agents, small drug molecules, photosensitizing nanoparticles, exosomes, and even miRNA to cardiomyocytes. As a natural extension to the development of CTP as a clinically viable ... || Advances in the development of novel technologies in pharmaceutics today necessitate the development of safe and effective targeted delivery methods for cargoes such as nanoparticles, siRNA, drugs, and more. Cell-penetrating peptides (CPPs), which are small, positively charged peptides capable of crossing the cell membrane barrier, provide a promising method for intracellular delivery, which is highly efficient and minimally cytotoxic. Tat (HIV trans-activator of transcription) was the first CPP to be discovered to enter the cell and induce the expression of viral genes ... || Heart disease and cardiac illness continue to be a leading cause of death in the US [16], and, as such, novel treatments for increasingly prevalent conditions such as heart failure and atrial fibrillation are sorely needed.

CHO-hERG = CHO-hERG (Homo sapiens, UniProt Q12809)
[1] = system: seventy-eight protein channels; test: Eurofins SAFETYscan E/IC50 ELECT (all seventy-eight assays); conditions: CTP 0.1 µM to 30 µM
Description: Eurofins Toxicology Study: In vitro toxicology studies were performed by Eurofins Scientific through both their Ion Channel Profiler and Cardiac Profiler Panel and their DiscoverX’s SAFETYscan E/IC50 […] service. Increasing concentrations of CTP (0.1 µM to 30 µM) were tested against various ion channels and a total of seventy-eight assays performed utilizing various output reads, including GPCR cAMP modulation assays, calcium mobilization assays, nuclear hormone receptor assays, KINOMEscan binding assays, ion channel assays, transporter assays, and enzymatic assays. All methods described below were performed, described, and reported by Eurofins Scientific in their study report (Supplementary Methods S1 and S2).
GPCR cAMP modulation assays, calcium mobilization assays, nuclear hormone receptor assays, KINOMEscan binding assays, ion channel assays, transporter assays, and enzymatic assays were performed by Eurofins under GLP standards.
DiscoverX was contracted by Maliha Zahid at Mayo Clinic to profile 1 compound(s) with the SAFETYscan E/IC50 ELECT service. Details are
Product: SAFETYscan E/IC50 ELECT
ADOR A2A- Calci um Flux-Agonist DRD2S-cAMP-Agonist HTR3A-Ion Channel-Blocker
ADORA2A-Calcium Flux-Antagonist DRD2S-cAMP-Antagonist HTR3A-Ion Channel-Opener
ADRA1A-Calcium Flux-Agonist EDNRA-Calcium Flux-Agonist KvLQT1/minK-Ion Channel-Blocker […]

CHO-hERG, sequence (Q12809 whole entry): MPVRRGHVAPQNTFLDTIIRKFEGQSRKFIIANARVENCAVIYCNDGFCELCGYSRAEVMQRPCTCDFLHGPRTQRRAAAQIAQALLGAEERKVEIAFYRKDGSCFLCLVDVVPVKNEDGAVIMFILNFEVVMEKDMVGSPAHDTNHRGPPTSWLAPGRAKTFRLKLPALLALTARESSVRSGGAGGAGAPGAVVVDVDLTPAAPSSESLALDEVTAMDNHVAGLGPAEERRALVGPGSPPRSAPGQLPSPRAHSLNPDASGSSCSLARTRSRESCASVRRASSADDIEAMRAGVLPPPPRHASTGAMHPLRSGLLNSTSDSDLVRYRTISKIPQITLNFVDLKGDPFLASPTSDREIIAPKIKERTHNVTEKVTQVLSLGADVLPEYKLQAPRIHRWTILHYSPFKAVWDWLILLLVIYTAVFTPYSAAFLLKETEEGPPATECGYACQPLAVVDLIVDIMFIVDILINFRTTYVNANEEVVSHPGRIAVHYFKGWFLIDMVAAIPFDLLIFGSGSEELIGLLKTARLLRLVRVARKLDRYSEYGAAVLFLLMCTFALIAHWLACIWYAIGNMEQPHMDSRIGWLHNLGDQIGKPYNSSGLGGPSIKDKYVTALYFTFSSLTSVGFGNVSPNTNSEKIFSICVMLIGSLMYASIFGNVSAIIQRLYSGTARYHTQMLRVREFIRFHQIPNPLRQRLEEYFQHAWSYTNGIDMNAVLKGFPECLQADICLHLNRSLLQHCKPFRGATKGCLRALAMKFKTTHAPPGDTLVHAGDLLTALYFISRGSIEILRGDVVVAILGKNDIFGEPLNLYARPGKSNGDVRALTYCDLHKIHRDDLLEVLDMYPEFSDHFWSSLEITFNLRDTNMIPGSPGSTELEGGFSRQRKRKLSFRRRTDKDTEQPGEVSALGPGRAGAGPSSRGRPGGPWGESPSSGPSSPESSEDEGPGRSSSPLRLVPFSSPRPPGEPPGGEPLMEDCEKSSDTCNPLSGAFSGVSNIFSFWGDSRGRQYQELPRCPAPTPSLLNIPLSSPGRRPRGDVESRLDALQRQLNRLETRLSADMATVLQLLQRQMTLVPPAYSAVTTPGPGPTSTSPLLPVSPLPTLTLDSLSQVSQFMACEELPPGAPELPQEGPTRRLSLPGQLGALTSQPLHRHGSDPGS

APWHLSSQYSRT [CTP]
cell specificity in the heart (cardiomyocytes; fibroblasts, endothelial cells, myofibroblasts spared, ref [19]): targets cardiomyocytes specifically while sparing the other cells | time to targeting of cardiomyocytes after intravenous injection (cardiomyocytes; intravenous injection, "in as little as", ref our prior work): ~5 min | time to transduction of cardiomyocytes after intravenous injection (cardiomyocytes; peripheral intravenous injection, "in as little as", ref [6],[15]): ~15 min | blood–brain barrier crossing (cardiomyocytes; ref [15]): does not cross the blood–brain barrier | uptake by other tissues (cardiomyocytes; ref [15]): not taken up by the lungs, spleen, or other muscle subtypes | Estimated IC50 (CHO-hERG): N/C (key: N/C: Not calculable, inhibition >25% was not observed.) | significant interactions across all seventy-eight assays [1]: No significant activation or inhibition of any of seventy-eight protein channels was observed other than OPRM1 and COX2 at the highest tested concentration; also recorded: only two showed significant interactions
